Columns and labels:
albumin = albumin (Homo sapiens, UniProt P02768); conditions: literature references; cited from earlier work
[1] = target: in-vitro guanidylated albumin (Homo sapiens, UniProt P02768); experiment: Effect of in-vitro guanidylation on protein bound fraction of albumin; conditions: albumin 75 μmol l^−1, ligand 7.5 μmol l^−1; over time of guanidylation (0-48 h)
Sequence of in-vitro guanidylated albumin (P02768 25-609): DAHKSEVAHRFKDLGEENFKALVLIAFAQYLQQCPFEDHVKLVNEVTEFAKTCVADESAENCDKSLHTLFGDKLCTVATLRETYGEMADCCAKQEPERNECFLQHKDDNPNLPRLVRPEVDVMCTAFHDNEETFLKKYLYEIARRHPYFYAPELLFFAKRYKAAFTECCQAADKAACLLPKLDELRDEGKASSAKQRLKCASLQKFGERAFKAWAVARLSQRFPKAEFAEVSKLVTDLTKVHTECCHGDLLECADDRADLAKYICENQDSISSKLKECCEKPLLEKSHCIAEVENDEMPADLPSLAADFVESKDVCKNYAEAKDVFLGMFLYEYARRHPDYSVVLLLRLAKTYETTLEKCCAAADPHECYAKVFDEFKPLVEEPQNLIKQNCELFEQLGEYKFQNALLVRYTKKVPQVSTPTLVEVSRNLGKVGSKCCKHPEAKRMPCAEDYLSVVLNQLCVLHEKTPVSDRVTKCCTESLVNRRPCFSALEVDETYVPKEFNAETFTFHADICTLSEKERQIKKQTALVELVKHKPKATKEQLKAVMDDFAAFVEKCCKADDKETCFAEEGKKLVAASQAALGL

Sequence of albumin (P02768 25-609): as above

For `N[C@@H](Cc1c[nH]c2ccccc12)C(=O)O` [L-tryptophan], the “affinity to post-translational modified albumin as compared to indoxyl sulfate” value (albumin) is listed as “more than two orders of magnitude lower affinity” and the “decrease of binding of albumin caused by in-vitro guanidylation” value [1] is listed as 81%.
